Entries after “also recorded” stand apart in the source; their conditions may differ.
Assays:
[1] = test system: Artificially-ventilated pentobarbital anesthetised rabbits; assay: Intravenous infusion of carrier solutions saturated with pure nitric oxide gas; exhaled NO and MAP; assay type: in vivo, rabbit
Method: Male white New Zealand rabbits were subjected to different doses of an intravenous infusion of NO-substituted solutions at different doses. Several physiological parameters were measured during the experiments, including NO concentration in mixed exhaled gas (FENO).
(§1) Different carrier media solutions (table 1) were dissolved and diluted with saline or water to obtain different concentration of the solutions. The solution was then placed in a gas-tight chamber and deoxygenated by means of helium bubbling for 10 min. The glass chamber was then gassed with pure nitric oxide gas for 3-4 min.
Data are given as mean±SEM.

[2] = test system: pulmonary embolism / venous gas embolism in NO-synthesis inhibited animals; assay: Treatment of embolism with NO in lipid emulsion in animals with inhibited NO production; assay type: in vivo; conditions: animal with inhibited NO production
Source text: It is contemplated that the NO infusion exerts vasodilatory effects in the pulmonary circulation, and/or mild vasodilatory effect on systemic circulation, and inhibits thrombocyte aggregation, or a combination of these effects.
The beneficial effects may be induction of vasodilation in the pulmonary vasculature, inhibition of aggregation of thrombocytes and/or minor vasodilation in the whole or parts of the systemic circulation, for example in the coronary circulation.

[3] = Deoxygenation and exposure of carrier to NO gas (suitability for infusion); assay type: physicochemical
Method: as §1

[4] = test system: artificially ventilated pentobarbital anaesthetized rabbits; assay: Effects of L-NAME infusion in anaesthetised rabbit; conditions: L-NAME 30 mg kg^−1 throughout 10 min
Source text: The experiments were approved by the local animal ethics committee. […] The animals were placed in supine position and tracheotomised just below the cricoid cartilage to allow mechanical ventilation using a tracheal cannula with an outer diameter of 5 mm. […] The ventilator was supplied with NO-free air using a charcoal filter (110×11 cm). […] The minute ventilation was 0.64-0.96 l min^−1. To the other side arm a pressure transducer (Statham, Hato Rey, Puerto Rico) was connected thus monitoring the insufflation pressure. The gas from the ventilator outlet was led through a switching valve to either of two beakers creating a positive end-expiratory pressure (PEEP) of 1-2 CmH2O or 4-5 cmhbO. During the experiment the gas flow was altered between the lower PEEP (9 min) and the higher PEEP (1 min) with an interval of totally 10 min. […] A heparinized catheter was inserted in the left common carotid artery for blood pressure and heart rate recordings (pressure transducer, Statham, Hato Rey, Puerto Rico), and arterial blood sampling. Another catheter was inserted in the right jugular vein for drug and muscle emboli administration. […] The muscles from the anterior compartment of the right lower hind limb were resected and placed in normal saline. Hereafter the animals were allowed a 30-60 min intervention-free period to obtain stable circulatory conditions and stable concentrations of expired NO.
NO concentration, in mixed exhaled gas, was continuously measured by means of a chemiluminescence based system (Niox, Aerocrine AB, Solna, Sweden) sampling at 100 ml min^−1 at the end of a mixing chamber connected to the ventilator exhaust. The full mixing of expired air thus measured on was intermittently checked by monitoring CO2 concentration in the same chamber. In a few experiments, gas for NO measurement was sampled from the trachea at the same point as for tidal CO2 measurements, thus yielding breath by breath NO concentrations. Calibration was done using certified NO standard gas in nitrogen (AGA Specialgas, Lidingδ, Sweden).
Blood samples were collected and analyzed for blood gases and acid-base status (ABL 300, Radiometer A/S, Copenhagen, Denmark) before L-NAME administration (group 2, time=−40 min) and shortly before muscle emboli challenge (group 1 and 2, time=−5 min). […] Arterial blood samples were collected and analysed at 10 min, 20 min, 40 min and 60 min after embolization. NO concentration in exhaled gas, end-tidal CO2, heart rate, mean arterial pressure and insufflation pressure was continuously monitored on a Grass Polygraph (Grass Instruments Co, Quincy, Mass., USA) during the experiments.

Row | Compound | Exhaled NO, Change (%) ([1]; infusion versus pre-infusion) | MAP, Change (%) ([1]; infusion versus pre-infusion) | effect as NO carrier / NO delivering capacity (words) ([1]; compared to the saline control) | Exhaled NO, Change (absolute value) ([1]; infusion versus pre-infusion) [ppb] | MAP, Change (absolute value) ([1]; infusion versus pre-infusion) [cmH2O] | also measured
1 | CCCO [Carrier 1-Propanol, 1-Propanol] | 733 | −11 | – | – | – | –
2 | Fucoidan [Fucoidan (10%)] | 23 | −52 | noticeable effect | 4.7 | −55.9 | –
3 | O=C(CO)[C@@H](O)[C@H](O)[C@H](O)CO [Fructose (60%), Fructose] | 88 | – | noticeable effect | 13.1 | – | –
4 | Heparin [Heparin (15000 IU/ml, 10%)] | −5 | −12 | – | −0.6 | −8.8 | –
5 | OC[C@H]1O[C@@](CO)(O[C@H]2O[C@H](CO)[C@@H](O)[C@H](O)[C@H]2O)[C@@H](O)[C@@H]1O [Sucrose (60%), Sucrose] | 75 | – | noticeable effect | 11.2 | – | –
6 | [N]=O [inhaled nitric oxide, nitric oxide] | – | – | – | – | – | treatment of venous gas embolism [2]: impossible to treat
7 | CC(=O)N[C@@H](CS)C(=O)O [N-Acetylcysteine] | 19 | – | noticeable effect | 4.1 | – | –
8 | NCC(=O)O [Glycine] | −4 | – | – | −0.6 | – | –
9 | Dextran [Dextran (15%)] | 24 | −34 | noticeable effect; also recorded: positive results | 2.8 | −45.5 | –
10 | OCC(O)CO [Glycerol] | 475 ± 120 | – | act as a selective NO carrier | 63.3 ± 10.5 | – | effect as NO carrier / NO delivering capacity (words) ([1]; compared to the saline control, listed as glycerol): noticeable effect
11 | Inulin [Inulin (15%)] | 12 | −31 | noticeable effect | 1.8 | −26.5 | –
12 | C[C@H](N)C(=O)O [Alanine] | 0 | – | – | 0 | – | –
13 | CCO [Etanol] | 0 | 0 | – | 0 | 0 | –
14 | N[C@H]1C(O)O[C@H](CO)[C@@H](O)[C@@H]1O (stereo partly drawn) [Glucosamine] | −9 | – | – | −0.9 | – | –
15 | O=C[C@H](O)[C@@H](O)[C@@H](O)[C@H](O)CO [Galactose (60%), Galactose] | – | – | – | – | – | Exhaled NO, Change (%) ([1]; rabbit, in vivo): 41%; Exhaled NO, Change (absolute value) ([1]; rabbit, in vivo): 3.3 ppb; effect as NO carrier / NO delivering capacity (words) ([1]; rabbit, in vivo): noticeable effect
16 | C[C@H](O)[C@@H](O)[C@@H](O)[C@H](O)C=O [Fucose] | 22 | – | noticeable effect | 4.1 | – | –
17 | OCCCO [1,3-Propanediol] | 562 | −33 | noticeable effect; also recorded: exhibited NO delivering capacity | 78.2 | −38.2 | –

Row | Compound | Exhaled NO, Change (%) ([1]; infusion versus pre-infusion) | MAP, Change (%) ([1]; infusion versus pre-infusion) | effect as NO carrier / NO delivering capacity (words) ([1]; compared to the saline control) | Exhaled NO, Change (absolute value) ([1]; infusion versus pre-infusion) [ppb] | MAP, Change (absolute value) ([1]; infusion versus pre-infusion) [cmH2O] | also measured
18 | O=C[C@H](O)[C@@H](O)[C@H](O)[C@H](O)C(=O)O [Glucuronic acid] | 0 | – | – | 0 | – | –
19 | PEG 400 | – | – | positive results | – | – | –
20 | COC1O[C@H](CO)[C@@H](O)[C@H]1O (stereo partly drawn) [1-O-methyI-Ribose, 1-O-methyl-ribose] | 1284 | −50 | noticeable effect | 155.9 | −50.0 | –
21 | Polyethylene glycol | 61 | −19 | noticeable effect | 11.2 | −17.6 | –
22 | O=CC[C@H](O)[C@H](O)CO [2-deoxy-Ribose] | 269 | – | noticeable effect | 32.7 | – | –
23 | O=C[C@H](O)[C@H](O)[C@H](O)CO [Ribose (50%), Ribose] | 77 ± 43 | – | noticeable effect | 8.2 ± 3.0 | – | –
24 | CC(O)C(=O)O (stereo not drawn) [Lactate] | 0 | −2 | – | 0 | −1.5 | –
25 | N=C(N)NCCC[C@H](N)C(=O)O [Arginine] | – | – | – | – | – | Exhaled NO, Change (%) ([1]; rabbit, in vivo): 3%; Exhaled NO, Change (absolute value) ([1]; rabbit, in vivo): 0.6 ppb
26 | N[C@@H](CS)C(=O)O [L-cysteine] | – | – | – | – | – | behaviour when deoxygenated and exposed to NO gas [3]: a copious precipitate, unsuitable for infusion, was formed
27 | NC(CO)CO [2-Amino-1,3-propanediol] | 14 | – | – | 2.4 | – | –
28 | OC[C@@H](O)[C@@H](O)[C@H](O)[C@@H](O)CO [Sorbitol (60%), Sorbitol] | 60 | – | noticeable effect | 4.2 | – | –
29 | O=C(O)[C@H](O)[C@@H](O)[C@H](O[C@@H]1O[C@H](CO)[C@H](O)[C@H](O)[C@H]1O)[C@H](O)CO [Lactobionic acid] | 42 | −35 | noticeable effect | 8.3 | −32.4 | –
30 | OC[C@@H](O)[C@@H](O)[C@H](O)[C@H](O)CO [Mannitol (20%), Mannitol] | 55.6 | – | noticeable effect; also recorded: positive results | 4.7 | – | –
31 | NCC(O)CO (stereo not drawn) [3-Amino-1,2-propanediol] | 0 | – | – | 0 | – | –
32 | CC(C)O [Carrier 2-PropanoI, 2-propanol] | 1400 | −15 | noticeable effect; also recorded: marked effect | 180 | −14.7 | –
33 | CC(O)CO (stereo not drawn) [1,2-Propanediol] | 217 | −16 | noticeable effect; also recorded: exhibited NO delivering capacity | 27.9 | −14.7 | –
34 | COC(=O)[C@@H](N)CCCNC(=N)N[N+](=O)[O-] [L-NAME, N^G-nitro-L-arginine methyl ester] | – | – | – | – | – | End-tidal CO2 and the relevant blood gas parameters [4]: normal; exhaled nitric oxide after L-NAME infusion [4]: < 1 ppb; heart rate (HR) after L-NAME infusion [4]: 258 beats min^−1; systemic mean arterial blood pressure (MAP) after L-NAME infusion [4]: 128 cmHaO

From patent publication US8552068B2, “Compositions and methods” (priority 2004, dated 2013)
